Assay results reported in ChEMBL document CHEMBL1135089, “Nonpeptide alpha(v)beta(3) antagonists. Part 2: constrained glycyl amides derived from the RGD tripeptide” (Bioorg Med Chem Lett, 2002).

Legend:
Integrin alpha-V/beta-3 = Integrin alpha-V/beta-3 (Homo sapiens, UniProt P05106+P06756); experiment: Displacement of a non-peptide radioligand from human recombinant alphaV-beta3 integrin; format: protein-complex assay
Mus musculus = species: Mus musculus; experiment: The ability of compound to inhibit the transformation of osteoblast-like cells originally derived from mouse calvaria, into osteoclasts by OCFORM assay; format: functional, cell-based

Integrin alpha-V/beta-3, sequence (P05106 27-788 limits assumed): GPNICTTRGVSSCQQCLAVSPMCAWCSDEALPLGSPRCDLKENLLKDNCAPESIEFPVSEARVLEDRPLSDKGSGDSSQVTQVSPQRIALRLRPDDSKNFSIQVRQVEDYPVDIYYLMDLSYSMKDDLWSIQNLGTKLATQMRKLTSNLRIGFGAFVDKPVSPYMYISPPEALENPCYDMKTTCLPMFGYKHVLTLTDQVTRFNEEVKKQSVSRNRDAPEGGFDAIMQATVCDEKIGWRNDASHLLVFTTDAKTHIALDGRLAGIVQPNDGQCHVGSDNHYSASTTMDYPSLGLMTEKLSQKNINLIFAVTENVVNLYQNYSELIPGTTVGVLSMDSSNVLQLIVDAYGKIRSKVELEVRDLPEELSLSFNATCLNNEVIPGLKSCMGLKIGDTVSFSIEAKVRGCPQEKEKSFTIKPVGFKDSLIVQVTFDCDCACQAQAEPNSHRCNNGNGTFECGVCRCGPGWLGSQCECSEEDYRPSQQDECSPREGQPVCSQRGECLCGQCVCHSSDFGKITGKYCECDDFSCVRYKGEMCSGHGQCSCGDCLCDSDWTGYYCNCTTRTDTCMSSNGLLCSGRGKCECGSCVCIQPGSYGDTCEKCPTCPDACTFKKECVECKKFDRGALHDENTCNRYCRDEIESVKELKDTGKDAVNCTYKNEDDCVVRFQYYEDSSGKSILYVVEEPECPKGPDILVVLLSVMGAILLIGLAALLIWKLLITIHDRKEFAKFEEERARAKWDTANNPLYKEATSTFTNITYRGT
Integrin alpha-V/beta-3, sequence (P06756 31-889 limits assumed): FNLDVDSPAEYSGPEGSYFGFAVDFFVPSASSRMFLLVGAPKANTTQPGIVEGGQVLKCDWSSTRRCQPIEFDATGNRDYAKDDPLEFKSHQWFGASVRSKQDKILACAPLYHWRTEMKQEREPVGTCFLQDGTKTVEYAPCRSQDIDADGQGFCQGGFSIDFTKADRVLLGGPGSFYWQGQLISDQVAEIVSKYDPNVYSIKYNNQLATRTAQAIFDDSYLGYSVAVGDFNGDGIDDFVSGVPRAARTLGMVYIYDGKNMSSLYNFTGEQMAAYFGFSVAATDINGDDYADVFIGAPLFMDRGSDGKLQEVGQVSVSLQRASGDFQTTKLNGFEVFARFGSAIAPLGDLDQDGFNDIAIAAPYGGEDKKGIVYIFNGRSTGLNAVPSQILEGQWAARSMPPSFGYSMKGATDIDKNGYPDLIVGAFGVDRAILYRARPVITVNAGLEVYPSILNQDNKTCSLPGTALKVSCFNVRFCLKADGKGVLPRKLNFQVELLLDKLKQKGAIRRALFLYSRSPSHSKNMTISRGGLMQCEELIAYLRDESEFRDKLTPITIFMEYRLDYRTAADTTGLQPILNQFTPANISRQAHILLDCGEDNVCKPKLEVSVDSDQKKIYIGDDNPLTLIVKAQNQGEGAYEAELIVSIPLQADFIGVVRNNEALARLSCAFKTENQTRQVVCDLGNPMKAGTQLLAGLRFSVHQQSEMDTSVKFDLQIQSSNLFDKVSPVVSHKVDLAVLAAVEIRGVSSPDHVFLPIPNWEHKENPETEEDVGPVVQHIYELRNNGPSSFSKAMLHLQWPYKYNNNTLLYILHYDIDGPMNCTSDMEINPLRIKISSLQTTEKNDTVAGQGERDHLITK
Integrin alpha-V/beta-3, sequence (P06756 891-1048 limits assumed): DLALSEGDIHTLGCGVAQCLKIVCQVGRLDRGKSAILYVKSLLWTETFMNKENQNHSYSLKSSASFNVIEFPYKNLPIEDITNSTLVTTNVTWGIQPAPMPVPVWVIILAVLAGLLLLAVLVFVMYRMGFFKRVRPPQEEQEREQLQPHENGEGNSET

Compound	IC50 (Integrin alpha-V/beta-3) [nM]	IC50 (Mus musculus) [nM]
N=C(N)NCCCCC(=O)NCC(=O)NCCC(=O)O	> 10000	–
O=C(O)C[C@H](NC(=O)CN1CC[C@H](CCc2ccc3c(n2)NCCC3)C1=O)c1cccnc1	–	62
N=C(N)NCCC[C@H](N)C(=O)NCC(=O)N[C@@H](CC(=O)O)C(=O)O	> 10000	–
O=C(O)C[C@H](NC(=O)CN1CC[C@@H](CCc2ccc3c(n2)NCCC3)C1=O)c1cccnc1	0.94	79
O=C(O)C[C@H](NC(=O)CN1CCCC(CCc2ccc3c(n2)NCCC3)C1=O)c1cccnc1 (some centres undefined)	1.2	480
O=C(O)C[C@H](NC(=O)CNC(=O)CCCc1ccc2c(n1)NCCC2)c1cccnc1	1.3	–
O=C(O)CCNC(=O)CNC(=O)CCCc1ccc2c(n1)NCCC2	111	–
C#C[C@H](CC(=O)O)NC(=O)CNC(=O)CCCc1ccc2c(n1)NCCC2	8.8	–
C#C[C@H](CC(=O)O)NC(=O)CN1CC[C@H](CCc2ccc3c(n2)NCCC3)C1=O	2.9	150
O=C(O)C[C@H](NC(=O)CN1CCN(CCc2ccc3c(n2)NCCC3)C1=O)c1cccnc1	12	> 1000
